ChEMBL document CHEMBL1201862, “PubChem BioAssay data set” (2004)
Activity calls are given as the source filed them.

Legend:
[1] = target: T1, Calpain-2 catalytic subunit (Sus scrofa, UniProt P43367); assay: pig calpain II inhibitor potency, dose response, biochemical, fluorogenic peptide substrate (AID 1420); type: functional
T1 sequence (P43367 whole entry): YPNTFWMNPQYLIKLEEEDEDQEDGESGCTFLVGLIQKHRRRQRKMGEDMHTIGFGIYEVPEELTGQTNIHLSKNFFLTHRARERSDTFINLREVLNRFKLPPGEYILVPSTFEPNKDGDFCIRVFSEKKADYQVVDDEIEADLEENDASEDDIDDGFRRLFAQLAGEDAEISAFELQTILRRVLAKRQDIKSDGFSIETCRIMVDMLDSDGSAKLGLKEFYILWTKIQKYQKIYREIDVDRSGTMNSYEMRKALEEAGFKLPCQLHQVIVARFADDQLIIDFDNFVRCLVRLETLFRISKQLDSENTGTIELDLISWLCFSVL

[2] = target: T2, Polyadenylate-binding protein 1 (Homo sapiens, UniProt P11940); assay: PABP1 MLLE–PAM2 interaction inhibitors, dose response, miRNA deadenylation inhibitor project, biochemical, fluorescence polarization, Cy5-PAM2 peptide, secondary (AID 602260); type: functional; conditions: read-out: IC50_Mean
T2 sequence (P11940 whole entry): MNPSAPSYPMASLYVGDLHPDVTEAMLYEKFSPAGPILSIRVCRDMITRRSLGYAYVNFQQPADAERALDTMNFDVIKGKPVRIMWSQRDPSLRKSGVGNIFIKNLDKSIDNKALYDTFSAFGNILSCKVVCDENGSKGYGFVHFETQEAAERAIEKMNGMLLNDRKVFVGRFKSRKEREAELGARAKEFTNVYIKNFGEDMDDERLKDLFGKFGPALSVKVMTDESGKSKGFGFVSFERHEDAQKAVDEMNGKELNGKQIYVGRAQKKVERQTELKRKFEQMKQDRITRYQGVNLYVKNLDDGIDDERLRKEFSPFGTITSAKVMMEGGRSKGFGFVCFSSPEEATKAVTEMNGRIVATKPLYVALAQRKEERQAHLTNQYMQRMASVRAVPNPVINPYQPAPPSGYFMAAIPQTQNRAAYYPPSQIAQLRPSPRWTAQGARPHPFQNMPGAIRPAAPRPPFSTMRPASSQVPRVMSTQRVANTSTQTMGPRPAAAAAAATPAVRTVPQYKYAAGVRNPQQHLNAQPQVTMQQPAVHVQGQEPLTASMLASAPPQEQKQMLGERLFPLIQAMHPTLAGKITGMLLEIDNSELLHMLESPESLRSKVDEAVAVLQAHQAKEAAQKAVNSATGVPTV

[3] = target: T2, Polyadenylate-binding protein 1; assay: PABP1 MLLE–PAM2 binding inhibitor potency, dose response, biochemical, fluorescence polarization, FITC-PAM2 peptide (AID 602259); type: functional; conditions: read-out: IC50_Mean
[4] = target: Cytochrome P450 2D6 (Homo sapiens, UniProt P10635);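 further: CYP2D6 member of a cytochrome P450 panel assay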
Cytochrome P450 2D6, sequence (P10635 whole entry): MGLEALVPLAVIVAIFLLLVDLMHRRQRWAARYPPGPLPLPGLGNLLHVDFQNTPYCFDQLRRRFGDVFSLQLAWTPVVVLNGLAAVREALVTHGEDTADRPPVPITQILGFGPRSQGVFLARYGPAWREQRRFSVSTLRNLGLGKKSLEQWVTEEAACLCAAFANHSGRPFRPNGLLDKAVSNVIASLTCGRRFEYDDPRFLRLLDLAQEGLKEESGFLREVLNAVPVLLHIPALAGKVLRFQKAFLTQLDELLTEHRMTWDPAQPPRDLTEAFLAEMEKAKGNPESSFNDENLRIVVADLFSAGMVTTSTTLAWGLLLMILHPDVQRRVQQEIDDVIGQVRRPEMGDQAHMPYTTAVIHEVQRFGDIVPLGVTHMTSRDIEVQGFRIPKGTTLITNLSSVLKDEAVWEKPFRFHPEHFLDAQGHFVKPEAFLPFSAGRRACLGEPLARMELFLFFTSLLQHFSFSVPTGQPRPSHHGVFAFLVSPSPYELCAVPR

[5] = target: Cytochrome P450 2C9 (Homo sapiens, UniProt P11712)
Cytochrome P450 2C9, sequence (P11712 whole entry): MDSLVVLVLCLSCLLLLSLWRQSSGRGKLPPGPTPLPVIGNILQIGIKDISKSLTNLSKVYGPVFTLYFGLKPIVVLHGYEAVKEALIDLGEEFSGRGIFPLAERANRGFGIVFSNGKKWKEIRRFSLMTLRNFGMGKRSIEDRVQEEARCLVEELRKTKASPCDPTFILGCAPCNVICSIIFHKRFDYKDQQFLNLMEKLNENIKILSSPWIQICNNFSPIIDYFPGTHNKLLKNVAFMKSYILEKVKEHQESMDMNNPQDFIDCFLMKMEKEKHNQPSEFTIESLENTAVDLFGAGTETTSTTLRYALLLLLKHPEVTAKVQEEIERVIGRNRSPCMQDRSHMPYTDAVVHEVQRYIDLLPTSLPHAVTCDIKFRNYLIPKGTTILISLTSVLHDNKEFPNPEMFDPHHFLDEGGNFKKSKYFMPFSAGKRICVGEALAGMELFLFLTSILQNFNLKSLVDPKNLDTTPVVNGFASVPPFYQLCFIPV

[6] = target: Large T antigen (Simian virus 40, UniProt P03070); type: functional, Betapolyomavirus macacae;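 further: Confirmatory-stage PubChem screen for compounds that inhibit SV40 T antigen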
Large T antigen, sequence (P03070 whole entry): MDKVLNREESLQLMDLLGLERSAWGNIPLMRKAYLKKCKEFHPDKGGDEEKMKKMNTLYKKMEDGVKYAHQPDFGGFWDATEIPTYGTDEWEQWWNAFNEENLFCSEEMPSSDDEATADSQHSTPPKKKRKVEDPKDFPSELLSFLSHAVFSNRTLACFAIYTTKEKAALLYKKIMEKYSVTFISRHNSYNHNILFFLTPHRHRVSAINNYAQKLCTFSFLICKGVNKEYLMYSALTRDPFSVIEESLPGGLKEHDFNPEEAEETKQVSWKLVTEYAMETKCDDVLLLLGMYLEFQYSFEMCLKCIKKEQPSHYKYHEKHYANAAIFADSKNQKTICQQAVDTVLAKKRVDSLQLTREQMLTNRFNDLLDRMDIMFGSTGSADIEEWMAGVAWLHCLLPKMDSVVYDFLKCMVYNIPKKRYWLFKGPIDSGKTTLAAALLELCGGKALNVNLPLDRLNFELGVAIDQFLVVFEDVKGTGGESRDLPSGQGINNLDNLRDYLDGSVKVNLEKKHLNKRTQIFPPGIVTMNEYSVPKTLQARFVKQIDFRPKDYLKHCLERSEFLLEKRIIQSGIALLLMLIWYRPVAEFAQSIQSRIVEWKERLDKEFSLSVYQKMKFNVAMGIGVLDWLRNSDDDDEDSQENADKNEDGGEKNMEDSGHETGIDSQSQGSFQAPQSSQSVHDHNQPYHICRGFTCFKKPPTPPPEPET

[7] = target: T3, Cytochrome P450 1A2 (Homo sapiens, UniProt P05177);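 further: PubChem cytochrome P450 panel assay, CYP1A2 panel member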
T3 sequence (P05177 whole entry): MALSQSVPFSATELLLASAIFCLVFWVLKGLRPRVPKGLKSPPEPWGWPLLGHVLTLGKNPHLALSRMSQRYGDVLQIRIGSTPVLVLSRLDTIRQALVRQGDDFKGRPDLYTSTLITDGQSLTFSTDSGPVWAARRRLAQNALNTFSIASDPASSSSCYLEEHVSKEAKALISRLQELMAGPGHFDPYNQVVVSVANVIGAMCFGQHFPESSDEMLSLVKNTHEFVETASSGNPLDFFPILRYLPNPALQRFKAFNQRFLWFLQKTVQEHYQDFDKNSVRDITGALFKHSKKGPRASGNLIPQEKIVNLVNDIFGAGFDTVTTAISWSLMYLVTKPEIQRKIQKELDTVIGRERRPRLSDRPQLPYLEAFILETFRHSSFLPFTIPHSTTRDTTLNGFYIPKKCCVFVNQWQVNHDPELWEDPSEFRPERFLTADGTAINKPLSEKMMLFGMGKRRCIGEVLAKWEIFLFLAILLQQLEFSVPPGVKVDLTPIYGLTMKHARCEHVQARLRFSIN

[8] = growth suppression of beta-catenin-knockout colon cells, dose response, cell-based, HCT116, human colon tumor (AID 1045); type: functional;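 further: HCT116 colon tumor cells with beta catenin knocked out; cells exposed to compound for 60 hours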
[9] = growth suppression of PTEN-null colon cells, dose response, cell-based, HCT116 PTEN knockout (AID 1047); type: functional;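 further: HCT116 colon tumor cells with PTEN knocked out; cells exposed to compound for 60 hours before readout; potency for loss of cell viability measured by luminescence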
[10] = test system: P388/ADR; assay: cells; type: functional; conditions: Mus musculus
[11] = target: Paired box protein Pax-8 (Homo sapiens, UniProt Q06710); assay: inhibitors of PAX8-driven TPO luciferase reporter, dose response, RMG-I cells, cherry-pick (AID 687027); type: functional, cell-based;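 further: luciferase reporter driven by Pax8 target thyroperoxidase promoter measured by SteadyGlo luminescence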
Paired box protein Pax-8, sequence (Q06710 whole entry): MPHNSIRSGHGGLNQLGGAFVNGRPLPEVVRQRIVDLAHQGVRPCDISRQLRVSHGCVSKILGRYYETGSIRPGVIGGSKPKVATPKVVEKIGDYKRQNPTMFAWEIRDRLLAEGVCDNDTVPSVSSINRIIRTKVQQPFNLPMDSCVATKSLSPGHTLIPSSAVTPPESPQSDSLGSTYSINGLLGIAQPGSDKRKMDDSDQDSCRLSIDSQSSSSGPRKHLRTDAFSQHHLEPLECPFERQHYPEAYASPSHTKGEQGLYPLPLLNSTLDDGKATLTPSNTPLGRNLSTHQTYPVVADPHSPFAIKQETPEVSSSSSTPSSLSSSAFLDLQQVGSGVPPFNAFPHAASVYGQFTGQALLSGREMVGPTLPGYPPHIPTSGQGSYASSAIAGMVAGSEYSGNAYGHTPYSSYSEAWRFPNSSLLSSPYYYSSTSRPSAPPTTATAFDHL

[12] = test system: SN12K1; assay: cells; type: functional; conditions: Homo sapiens
[13] = test system: P388; assay: cells; type: functional; conditions: Mus musculus
[14] = target: Genome polyprotein (dengue virus type 2, UniProt P29990); assay: Dengue-2 NS5 methyltransferase inhibitors, primary screen, biochemical, confirmation dose response (AID 588689); type: functional
Genome polyprotein, sequence (P29990 2492-3391 limits assumed): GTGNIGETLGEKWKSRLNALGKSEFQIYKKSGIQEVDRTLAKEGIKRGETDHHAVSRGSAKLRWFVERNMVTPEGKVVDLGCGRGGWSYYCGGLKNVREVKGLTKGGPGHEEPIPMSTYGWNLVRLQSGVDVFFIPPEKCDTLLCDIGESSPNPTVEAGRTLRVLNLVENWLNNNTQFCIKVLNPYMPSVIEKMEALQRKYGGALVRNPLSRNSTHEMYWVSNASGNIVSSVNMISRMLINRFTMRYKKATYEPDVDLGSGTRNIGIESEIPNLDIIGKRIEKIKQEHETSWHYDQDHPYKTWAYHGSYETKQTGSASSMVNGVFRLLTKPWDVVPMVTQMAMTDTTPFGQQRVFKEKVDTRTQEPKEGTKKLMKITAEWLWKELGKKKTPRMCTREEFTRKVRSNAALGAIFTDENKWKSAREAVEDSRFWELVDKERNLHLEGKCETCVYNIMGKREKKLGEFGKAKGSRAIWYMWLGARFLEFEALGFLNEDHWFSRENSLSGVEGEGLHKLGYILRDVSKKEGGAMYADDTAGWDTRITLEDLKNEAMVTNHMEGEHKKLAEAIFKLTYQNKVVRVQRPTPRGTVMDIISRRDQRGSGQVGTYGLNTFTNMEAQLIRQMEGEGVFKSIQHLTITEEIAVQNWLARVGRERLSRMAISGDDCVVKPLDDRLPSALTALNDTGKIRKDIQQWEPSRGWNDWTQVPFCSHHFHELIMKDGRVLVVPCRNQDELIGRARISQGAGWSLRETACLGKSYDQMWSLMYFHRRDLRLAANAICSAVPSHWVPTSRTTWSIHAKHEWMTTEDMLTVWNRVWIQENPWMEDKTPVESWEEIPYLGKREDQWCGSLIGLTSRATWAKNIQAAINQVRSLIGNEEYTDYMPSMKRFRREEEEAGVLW

[15] = Luminescence Cell-Based Dose Retest to Confirm Inhibitors of Cancer Stem Cells. [Related pubchem assays (depositor defined):AID2717, AID2721]; type: functional; conditions: Homo sapiens
[16] = Shn3 3'UTR reporter inhibitors, dose response, cell-based, Clone20 osteoblasts, firefly luciferase, cherry-picked (AID 624132); type: functional;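 further: firefly luciferase luminescence from reporter carrying the Shn3 3'UTR in osteoblasts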
[17] = target: T4, Protein skinhead-1 (Caenorhabditis elegans, UniProt P34707); type: functional
T4 sequence (P34707 whole entry): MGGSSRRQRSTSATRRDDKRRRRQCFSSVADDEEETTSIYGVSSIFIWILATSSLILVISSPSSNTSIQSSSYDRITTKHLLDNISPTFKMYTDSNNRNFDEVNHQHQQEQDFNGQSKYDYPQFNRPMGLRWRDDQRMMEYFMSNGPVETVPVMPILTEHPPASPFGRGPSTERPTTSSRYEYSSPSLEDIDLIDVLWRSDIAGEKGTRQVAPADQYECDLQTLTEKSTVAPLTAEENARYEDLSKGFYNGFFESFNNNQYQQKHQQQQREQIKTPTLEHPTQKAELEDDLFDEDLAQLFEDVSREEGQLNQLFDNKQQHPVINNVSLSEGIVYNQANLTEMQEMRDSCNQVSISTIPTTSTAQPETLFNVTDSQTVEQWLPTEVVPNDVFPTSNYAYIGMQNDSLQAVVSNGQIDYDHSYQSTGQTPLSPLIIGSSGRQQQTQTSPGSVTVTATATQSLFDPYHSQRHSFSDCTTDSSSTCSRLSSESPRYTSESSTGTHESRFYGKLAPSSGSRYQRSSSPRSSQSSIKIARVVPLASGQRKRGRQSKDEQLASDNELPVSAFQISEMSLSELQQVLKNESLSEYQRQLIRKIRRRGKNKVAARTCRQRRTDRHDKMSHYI

[18] = control 3'UTR Renilla luciferase suppression, dose response, counter-screen for Shn3 inhibitor project, cell-based, Clone20-Shn3RL, cherry-picked (AID 624133); type: functional
[19] = target: Nonstructural protein 1 (Influenza A virus, UniProt Q194T2); type: functional, Influenza A virus (A/California/07/2009(H1N1))
Nonstructural protein 1, sequence (Q194T2 whole entry): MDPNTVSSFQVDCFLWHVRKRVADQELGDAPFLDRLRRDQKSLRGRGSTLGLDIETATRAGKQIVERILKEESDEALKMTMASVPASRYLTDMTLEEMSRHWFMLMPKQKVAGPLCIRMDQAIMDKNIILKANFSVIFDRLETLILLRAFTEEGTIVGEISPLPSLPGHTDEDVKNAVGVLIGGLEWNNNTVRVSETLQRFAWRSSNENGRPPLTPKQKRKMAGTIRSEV

Structure (SMILES) | GI50 [10] | GI50 [12] | GI50 [13] | further results
CC(=O)c1ccc(NC(=O)c2noc(C(C)C)c2[N+](=O)[O-])cc1 | – | – | – | IC50 [1]: 3.66 µM (active)
O=C1CC(c2ccccc2)Cc2nc(N3CCc4ccccc4C3)ncc21 (stereo unspecified) | – | – | – | IC50 [1]: 6.43 µM (not active); IC50 [2]: > 66 µM (inactive); IC50 [3]: > 66 µM (inactive)
CN(C)c1ccc(-c2cncnc2NCc2cccnc2)cc1 | – | – | – | AC50 [4]: 12.6 µM (inconclusive); AC50 [5]: 0.501 µM (inconclusive)
CC(Cc1ccccc1Sc1ccc(O)cc1)N(C)C (stereo unspecified) | – | – | – | IC50 [6]: 71.9 µM (active)
O=C(c1csnn1)N1CCC2(CC1)CCN(c1ccccn1)CC2 | – | – | – | AC50 [4]: 20 µM (inconclusive); AC50 [7]: 25.1 µM (inconclusive); AC50 [5]: 20 µM (inconclusive)
CCC(=C(c1ccc(OC)cc1)c1ccc(OC)cc1)c1cn(CC(O)CN2CCN(C)CC2)c2ccccc12 (stereo unspecified) | – | – | – | EC50 [8]: 6.34 µM (active); EC50 [9]: 7.95 µM (active)
CC(C)CCCCCCCCCCCCC(=O)NCC(=O)NC1C(C)OC(Nc2[nH]cnc3ncnc2-3)C(O)C1O (stereo unspecified) | 0.01 µM (active) | 0.01 µM (active) | 0.01 µM (active) | AC50 [11]: < 0.26 µM (active)
C[N+](C)(C)CCOC(=O)/C=C/c1c[nH]cn1 | > 316 µM (inactive) | > 500 µM (inactive) | > 500 µM (inactive) | –
CN(C)CCOc1cc2c(c3ccccc13)-c1ccccc1C2O (stereo unspecified) | 5.77 µM (inactive) | 6.62 µM (inactive) | 5.02 µM (inactive) | –
CC1=CC(=O)C(C(C)C)=C/C1=C(\c1cc(C(C)C)c(OP(=O)(O)O)cc1C)c1ccccc1C(=O)O | – | – | – | IC50 [14]: 33.4 µM (active); AC50 [15]: 2.27 µM (active)
O=S(=O)(O)c1cc(/N=N/c2cc(S(=O)(=O)O)c3ccccc3c2O)ccc1/C=C/c1ccc(/N=N/c2cc(S(=O)(=O)O)c3ccccc3c2O)cc1S(=O)(=O)O | 36.6 µM (inactive) | > 78.9 µM (inactive) | > 100 µM (inactive) | –
CSC1SCC2C(=O)N(C)C(C(C)C)C(=O)OCC(NC(=O)c3cnc4ccccc4n3)C(=O)NC(C)C(=O)N(C)C1C(=O)N(C)C(C(C)C)C(=O)OCC(NC(=O)c1cnc3ccccc3n1)C(=O)NC(C)C(=O)N2C (stereo unspecified) | 9.55e-05 µM (active) | 0.0075 µM (active) | 0.0075 µM (active) | AC50 [16]: < 0.26 µM (active); IC50 [17]: 81.5 µM (inactive); AC50 [18]: < 0.26 µM (active)
O=CC(NC(=O)N(CCCl)N=O)C(O)C(O)C(O)CO (stereo unspecified) | 79.6 µM (inactive) | 760 µM (inactive) | 97.7 µM (inactive) | –
CN(C)C(=O)Oc1c(Br)cc(Br)cc1C(=O)OCc1ccccc1 | 16 µM (inactive) | 28.4 µM (inactive) | 17.9 µM (inactive) | –
CC(=O)c1c(O)n(Nc2nc(C)cc(C)n2)c(C)cc1=O | – | – | – | IC50 [19]: 12.9 µM (active)
O=C(OC[C@H]1O[C@@H](OC(=O)c2cc(O)c(O)c(OC(=O)c3cc(O)c(O)c(O)c3)c2)[C@H](OC(=O)c2cc(O)c(O)c(OC(=O)c3cc(O)c(O)c(O)c3)c2)[C@@H](OC(=O)c2cc(O)c(O)c(OC(=O)c3cc(O)c(O)c(O)c3)c2)[C@@H]1OC(=O)c1cc(O)c(O)c(OC(=O)c2cc(O)c(O)c(O)c2)c1)c1cc(O)c(O)c(OC(=O)c2cc(O)c(O)c(O)c2)c1 [TANNIC ACID] | – | – | – | IC50 [6]: < 0.16 µM (active)
